Values of other authors as cited in patent publication US12630801B2, “Stem cell-derived Schwann cells” (MEMORIAL SLOAN-KETTERING CANCER CENTER, priority 2016, dated 2026).

Columns and labels:
Details in all cases: Yu et al. 2008; Cuny et al. 2008
[1] = target: T1, ALK2 (Homo sapiens, UniProt Q04771)
T1 sequence (Q04771 21-509): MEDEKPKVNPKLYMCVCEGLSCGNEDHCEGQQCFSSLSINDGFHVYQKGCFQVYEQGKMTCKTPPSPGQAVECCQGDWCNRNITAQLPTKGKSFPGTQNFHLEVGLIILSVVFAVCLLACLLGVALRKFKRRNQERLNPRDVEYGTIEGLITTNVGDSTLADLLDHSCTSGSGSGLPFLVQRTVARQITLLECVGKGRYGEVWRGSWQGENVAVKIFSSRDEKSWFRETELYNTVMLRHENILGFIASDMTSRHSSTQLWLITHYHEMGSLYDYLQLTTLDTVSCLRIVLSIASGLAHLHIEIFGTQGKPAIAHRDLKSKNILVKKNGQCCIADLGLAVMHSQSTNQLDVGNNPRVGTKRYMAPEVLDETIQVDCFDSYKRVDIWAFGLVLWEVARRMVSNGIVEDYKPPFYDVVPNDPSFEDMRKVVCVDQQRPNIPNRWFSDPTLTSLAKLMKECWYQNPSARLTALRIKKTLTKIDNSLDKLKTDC

[2] = target: ALK3 (Homo sapiens, UniProt P36894)
ALK3, sequence (P36894 24-532, species assumed): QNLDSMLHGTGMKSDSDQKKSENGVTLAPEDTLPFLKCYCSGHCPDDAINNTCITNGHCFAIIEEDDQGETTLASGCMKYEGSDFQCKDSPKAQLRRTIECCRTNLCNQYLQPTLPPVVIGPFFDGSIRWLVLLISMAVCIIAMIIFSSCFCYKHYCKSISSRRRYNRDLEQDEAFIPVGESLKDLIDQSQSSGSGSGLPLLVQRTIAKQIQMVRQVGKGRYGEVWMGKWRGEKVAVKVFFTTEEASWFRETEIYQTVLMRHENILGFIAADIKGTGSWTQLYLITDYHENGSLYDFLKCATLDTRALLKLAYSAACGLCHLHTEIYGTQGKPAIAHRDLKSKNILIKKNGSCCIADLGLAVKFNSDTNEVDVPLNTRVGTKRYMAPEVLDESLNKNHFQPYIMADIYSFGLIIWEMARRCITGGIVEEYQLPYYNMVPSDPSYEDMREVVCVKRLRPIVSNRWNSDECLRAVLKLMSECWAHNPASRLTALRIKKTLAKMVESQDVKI

[3] = target: ALK6 (Homo sapiens, UniProt O00238)
ALK6, sequence (O00238 14-502): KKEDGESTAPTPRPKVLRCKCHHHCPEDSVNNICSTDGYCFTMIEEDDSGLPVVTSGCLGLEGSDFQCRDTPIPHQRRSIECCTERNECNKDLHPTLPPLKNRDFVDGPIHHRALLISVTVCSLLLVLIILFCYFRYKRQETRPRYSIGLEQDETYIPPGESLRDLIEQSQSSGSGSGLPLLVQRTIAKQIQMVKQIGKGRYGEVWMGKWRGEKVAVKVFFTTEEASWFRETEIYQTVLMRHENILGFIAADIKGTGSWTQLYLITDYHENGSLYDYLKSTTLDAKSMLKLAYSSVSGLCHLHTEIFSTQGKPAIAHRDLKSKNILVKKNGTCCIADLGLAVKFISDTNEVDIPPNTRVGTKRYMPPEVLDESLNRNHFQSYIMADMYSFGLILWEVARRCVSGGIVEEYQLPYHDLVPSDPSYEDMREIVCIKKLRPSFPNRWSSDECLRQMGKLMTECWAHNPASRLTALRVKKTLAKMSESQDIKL

c1ccc2c(-c3cnn4cc(-c5ccc(N6CCNCC6)cc5)cnc34)ccnc2c1 [LDN193189, 4-(6-(4-(piperazin-1-yl)phenyl)pyrazolo[1,5-a]pyrimidin-3-yl)quinoline]
highly potent small-molecule inhibitor: inhibition of ALK2 [1] | inhibition of ALK3 [2] | inhibition of ALK6 [3]
